This is an account of results in the supplement of paper PMC11208160.
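Further: IS621 recombinase and bridge RNA in Escherichia coli cells.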

This data set in a line: recombinant barcode read abundance after kanamycin selection (control-corrected) (log10(CPM+1)); higher = more efficient recombination; sequences stand for … in AGTGCAGAGAAAATCGGCCAGTTTTCTCTGCCTGCAGTCCGCATGCCGT…AGATTTATGCAGCGGACTGCCTTTCTCCCAAAGTGATAAACCGGACAGTATCATGGACCGGTTTTCCCGGTAATCCGTATTTGCAAGGTTGGTTTCACT; site = the 11-nt target. Put shortly:
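Each value is log10(CPM+1). It describes recombination efficiency, taken as averaged, control-corrected counts per million of barcodes at recombinant junctions. The pooled E. coli library paired targets with IS621 bridge RNA target-binding loops, was co-electroporated with a donor plasmid, and was plated twice on chloramphenicol/ampicillin LB agar (control) and twice on chloramphenicol/ampicillin/kanamycin containing 0.1 mM IPTG.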
For “GCGGGTCCTTGGGTTCTAACCTGTTGCGT (site GCGGGTCCTAC)”, the “recombinant barcode read abundance (log10)” value was determined as 2.98. For “GCGGGTCCTTGGGTTCTAACCTGTTGCGT (site GCTGCTCCTAC)” the value was 0.0517; for “GCGGTTCCTTGGGTTCTAACCTGTTGCCT (site GCCGCTCCTAG)”, 0.139; for “GCGGTTCCTTGGGTTCTAACCTGTTGCCT (site GCGGTTCCTAG)”, 1.96. For “GCGTATCCTTGGGTTCTAACCTGTTGCCT (site GCGAATCCTAG)” the value was 0.127; for “GCGTATCCTTGGGTTCTAACCTGTTGCCT (site GCGCATCCTAG)”, 0.0623. In the case of “GCGTATCCTTGGGTTCTAACCTGTTGCCT (site GCGGATCCTAG)” it was 0.23; in that of “GCGTATCCTTGGGTTCTAACCTGTTGCCT (site GCGTATCCTAG)”, 0.93. Take “GCGTCGTCTTGGGTTCTAACCTGTTGCCT (site GCATCGTCTAG)”: the “recombinant barcode read abundance (log10)” value came out at 0.134. In the case of “GCGTCGTCTTGGGTTCTAACCTGTTGCCT (site GCCTCGTCTAG)” it was 0.193; in that of “GCGTCGTCTTGGGTTCTAACCTGTTGCCT (site GCGTCGTCTAG)”, 0.0822. In the case of “GCGTCGTCTTGGGTTCTAACCTGTTGCCT (site GCTTCGTCTAG)” it was 0.229; in that of “GCGTCTCCTTGGGTTCTAACCTGTTGCAT (site GCGACTCCTAT)”, 0.209; in that of “GCGTCTCCTTGGGTTCTAACCTGTTGCAT (site GCGCCTCCTAT)”, 0.012. Regarding “GCGTCTCCTTGGGTTCTAACCTGTTGCAT (site GCGGCTCCTAT)”, the “recombinant barcode read abundance (log10)” value is 0.0731. For “GCGTCTCCTTGGGTTCTAACCTGTTGCAT (site GCGTCTCCTAT)” the value was 0.335. Consider “GCGTTTGCTTGGGTTCTAACCTGTTGCCT (site GAGTTTGCTAG)”, for which the “recombinant barcode read abundance (log10)” value amounted to 0.106. “GCGTTTGCTTGGGTTCTAACCTGTTGCCT (site GCGTTTGCTAG)”: the “recombinant barcode read abundance (log10)” value was 1.01. For “GCGTTTGCTTGGGTTCTAACCTGTTGCCT (site GGGTTTGCTAG)” the value was 0.0501; for “GCGTTTGCTTGGGTTCTAACCTGTTGCCT (site GTGTTTGCTAG)”, 0; for “GCTAACACTTGGGTTCTAACCTGTTGCCT (site ACTAACACTAG)”, 0.2. Consider “GCTAACACTTGGGTTCTAACCTGTTGCCT (site CCTAACACTAG)”, for which the “recombinant barcode read abundance (log10)” value was found to be 0.153. Turning to “GCTAACACTTGGGTTCTAACCTGTTGCCT (site GCTAACACTAG)”, the “recombinant barcode read abundance (log10)” value was 1.37.

“GCTAACACTTGGGTTCTAACCTGTTGCCT (site TCTAACACTAG)”: the “recombinant barcode read abundance (log10)” value is 0.075. In the case of “GCTAACCCTTGGGTTCTAACCTGTTGCGT (site GCGAACCCTCC)” it was 0; in that of “GCTAACCCTTGGGTTCTAACCTGTTGCGT (site GCTAACCCTAC)”, 3.05. In the case of “GCTAGGACTTGGGTTCTAACCTGTTGCTG (site CGGTCTGCTAT)” it was 0.163; in that of “GCTAGGACTTGGGTTCTAACCTGTTGCTG (site GCTAGGACTCA)”, 2.12. With “GCTCAACCTTGGGTTCTAACCTGTTGCCT (site GATCAACCTAG)”, the “recombinant barcode read abundance (log10)” value came to 0.796. For “GCTCAACCTTGGGTTCTAACCTGTTGCCT (site GCTCAACCTAG)” the value was 1.6; for “GCTCAACCTTGGGTTCTAACCTGTTGCCT (site GGTCAACCTAG)”, 0.176. “GCTCAACCTTGGGTTCTAACCTGTTGCCT (site GTTCAACCTAG)”: the “recombinant barcode read abundance (log10)” value was 0.126.

In the case of “GCTCACTCTTGGGTTCTAACCTGTTGCTT (site GCTCACTCTAA)”, the “recombinant barcode read abundance (log10)” value was determined as 1.63. In the case of “GCTCACTCTTGGGTTCTAACCTGTTGCTT (site GTTCCCTCTAA)” it was 0.0084; in that of “GCTCAGCCTTGGGTTCTAACCTGTTGCCT (site GCTCAGACTAG)”, 0.0954. For “GCTCAGCCTTGGGTTCTAACCTGTTGCCT (site GCTCAGCCTAG)”, the “recombinant barcode read abundance (log10)” value was 1.14. In the case of “GCTCAGCCTTGGGTTCTAACCTGTTGCCT (site GCTCAGGCTAG)” it was 0.16; in that of “GCTCAGCCTTGGGTTCTAACCTGTTGCCT (site GCTCAGTCTAG)”, 0.072; in that of “GCTCCGTCTTGGGTTCTAACCTGTTGCTT (site ACTCCGTCTTA)”, 0.047. Regarding “GCTCCGTCTTGGGTTCTAACCTGTTGCTT (site GCTCCGTCTAA)”, the “recombinant barcode read abundance (log10)” value amounted to 0.644.

For the sequence “GCTCGACCTTGGGTTCTAACCTGTTGCTG (site CGCTCCTCTAT)”, the “recombinant barcode read abundance (log10)” value amounted to 0.18. Regarding “GCTCGACCTTGGGTTCTAACCTGTTGCTG (site GCTCGACCTCA)”, the “recombinant barcode read abundance (log10)” value stood at 1.68. In the case of “GCTCGTACTTGGGTTCTAACCTGTTGCAT (site GCTCGTACTAT)”, the “recombinant barcode read abundance (log10)” value stood at 1.47.

With “GCTCGTACTTGGGTTCTAACCTGTTGCAT (site TCGCGTACTAT)”, the “recombinant barcode read abundance (log10)” value was 0.0401. On to “GCTGAGACTTGGGTTCTAACCTGTTGCCG (site GATGAGACTCG)”, for which the “recombinant barcode read abundance (log10)” value stood at 0.218. For “GCTGAGACTTGGGTTCTAACCTGTTGCCG (site GCTGAGACTCG)”, the “recombinant barcode read abundance (log10)” value worked out at 2.53. For “GCTGGACCTTGGGTTCTAACCTGTTGCAT (site GCTCGTCCTAT)” the value was 0.0463; for “GCTGGACCTTGGGTTCTAACCTGTTGCAT (site GCTGGACCTAT)”, 2.18. On to “GCTGGCCCTTGGGTTCTAACCTGTTGCCT (site GATGGCCCTAG)”, for which the “recombinant barcode read abundance (log10)” value was 0.0865. In the case of “GCTGGCCCTTGGGTTCTAACCTGTTGCCT (site GCTGGCCCTAG)” it was 1.18.

Consider “GCTGGCCCTTGGGTTCTAACCTGTTGCCT (site GGTGGCCCTAG)”, for which the “recombinant barcode read abundance (log10)” value is 0.0479.

Regarding “GCTGGCCCTTGGGTTCTAACCTGTTGCCT (site GTTGGCCCTAG)”, the “recombinant barcode read abundance (log10)” value was 0.481. On to “GCTGGTCCTTGGGTTCTAACCTGTTGCCT (site GCAGGTCCTAG)”, for which the “recombinant barcode read abundance (log10)” value was determined as 0.311. As for “GCTGGTCCTTGGGTTCTAACCTGTTGCCT (site GCCGGTCCTAG)”, the “recombinant barcode read abundance (log10)” value was determined as 0.431. Consider “GCTGGTCCTTGGGTTCTAACCTGTTGCCT (site GCGGGTCCTAG)”, for which the “recombinant barcode read abundance (log10)” value was determined as 0.205.

With “GCTGGTCCTTGGGTTCTAACCTGTTGCCT (site GCTGGTCCTAG)”, the “recombinant barcode read abundance (log10)” value is 1.75. In the case of “GCTTAAACTTGGGTTCTAACCTGTTGCCT (site ATGGCCTCTTA)” it was 0.0724; in that of “GCTTAAACTTGGGTTCTAACCTGTTGCCT (site GCTTAAACTAG)”, 1.04; in that of “GCTTCCACTTGGGTTCTAACCTGTTGCCT (site ACTTCCACTAG)”, 0.074. For “GCTTCCACTTGGGTTCTAACCTGTTGCCT (site CCTTCCACTAG)” the value was 0.24; for “GCTTCCACTTGGGTTCTAACCTGTTGCCT (site GCTTCCACTAG)”, 0.381. For “GCTTCCACTTGGGTTCTAACCTGTTGCCT (site TCTTCCACTAG)” the value was 0.196; for “GCTTCGTCTTGGGTTCTAACCTGTTGCCT (site GCATCGTCTAG)”, 0.427; for “GCTTCGTCTTGGGTTCTAACCTGTTGCCT (site GCCTCGTCTAG)”, 0.129. As for “GCTTCGTCTTGGGTTCTAACCTGTTGCCT (site GCGTCGTCTAG)”, the “recombinant barcode read abundance (log10)” value was 0.0292.

With “GCTTCGTCTTGGGTTCTAACCTGTTGCCT (site GCTTCGTCTAG)”, the “recombinant barcode read abundance (log10)” value was 0.393. For “GGAAAAGCTTGGGTTCTAACCTGTTGCTT (site GGAAAAGCTAA)”, the “recombinant barcode read abundance (log10)” value was found to be 0.268. For the sequence “GGAAAAGCTTGGGTTCTAACCTGTTGCTT (site TCTTCGACTCT)”, the “recombinant barcode read abundance (log10)” value was 0.153. For the sequence “GGAACGACTTGGGTTCTAACCTGTTGCGT (site CTCCGAGCTGT)”, the “recombinant barcode read abundance (log10)” value turned out to be 0.0623. In the case of “GGAACGACTTGGGTTCTAACCTGTTGCGT (site GGAACGACTAC)” it was 1.93; in that of “GGACACTCTTGGGTTCTAACCTGTTGCCT (site GGACACTCTAG)”, 2.75. Turning to “GGACACTCTTGGGTTCTAACCTGTTGCCT (site GGACACTCTTA)”, the “recombinant barcode read abundance (log10)” value stood at 1.09. On to “GGACATTCTTGGGTTCTAACCTGTTGCAT (site GGACATTCTAT)”, for which the “recombinant barcode read abundance (log10)” value was 0.872.

On to “GGACATTCTTGGGTTCTAACCTGTTGCAT (site GTCCATTCTAT)”, for which the “recombinant barcode read abundance (log10)” value stood at 0.0875. In the case of “GGACCTACTTGGGTTCTAACCTGTTGCCA (site GAACCTACTTG)” it was 0.0276.

As for “GGACCTACTTGGGTTCTAACCTGTTGCCA (site GGACCTACTTG)”, the “recombinant barcode read abundance (log10)” value stood at 0.483. In the case of “GGACGCTCTTGGGTTCTAACCTGTTGCCT (site GGACGCTCTAG)” it was 1.83.
